The record followed here is US11103605B2, “PET-imaging immunomodulators” (BRISTOL-MYERS SQUIBB COMPANY, priority 2016, dated 2021).

Data set [1] is described as follows: in vivo. The following applies: mouse, hPD-L1(−) HT-29 xenograft tumor, iv, total radioactivity. The method, then:
In this experiment, the [^18F]labelled macrocyclic PD-L1 peptide was produced as described in the above Examples, was tested for its ability to discriminate between hPD-L1-positive tumors and hPD-L1-negative tumors in mice.
Mice bearing bilateral xenograft tumors were produced by introducing 2×10^6 hPD-L1(+) L2987 human lung carcinoma cells and 4×10^6 hPD-L1(−) HT-29 human colon carcinoma cells subcutaneously on opposite sides of the mouse. Once tumors reached approximately 300 mm^3 (approximately 2-3 weeks after cell implantation), animals were selected for imaging. The body weight and tumor size of each study were measured and recorded on the imaging day before imaging procedure. Mice were placed in an anesthetic induction chamber and 3% isoflurane inhalant anesthesia was delivered in 100% O2 at a rate of 1-1.5 L/min. […] Mouse respiration was continuously monitored during imaging procedures and isoflurane may be adjusted dependent on depth of anesthesia. […] Time-activity curves were calculated for each ROI to yield a quantitative view of radiotracer within the tumor volume over the course of the 2 hour emission image. […]

The nature of data set [2]: PET imaging of mice bearing bilateral xenograft tumors: hPD-L1(+) tumor. The class given is in vivo, mouse. The following applies: mouse, hPD-L1(+) L2987 xenograft tumor, iv, total radioactivity, mean of 4 mice.
Description: (§1) Mice bearing bilateral xenograft tumors were produced by introducing 2×10^6 hPD-L1(+) L2987 human lung carcinoma cells and 4×10^6 hPD-L1(−) HT-29 human colon carcinoma cells subcutaneously on opposite sides of the mouse. Once tumors reached approximately 300 mm^3 (approximately 2-3 weeks after cell implantation), animals were selected for imaging. The body weight and tumor size of each study were measured and recorded on the imaging day before imaging procedure. Mice were placed in an anesthetic induction chamber and 3% isoflurane inhalant anesthesia was delivered in 100% O2 at a rate of 1-1.5 L/min. Once sedated, mice were removed from the induction chamber and placed into a plexiglass 4-chamber mouse hotel (custom-made by BMS-Applied Biotechnology group), while continuing to receive 1-1.5% isoflurane inhalant anesthesia and delivered in 100% O2 at a rate of 2 L/min via the nose-cone. Animal were kept warm using an external standalone temperature regulating unit (M2M Imaging Corp) to prevent hypothermia during imaging. Mouse respiration was continuously monitored during imaging procedures and isoflurane may be adjusted dependent on depth of anesthesia. Mice were then placed into a custom animal holder with capacity for 4 animals, where they remained under anesthesia for the duration of the study. The animal holder was transferred to the microPET® F120™ scanner (Siemens Preclinical Solutions, Knoxville, Tenn.). The axial field of view of this instrument is 7.6 cm. With this limitation, animals were positioned such that the scanning region was from immediately in front of the eyes to approximately the base of the tail. A 10-minute transmission image was first acquired using a ^57Co point source for the purpose of attenuation correction of the final PET images. Following the transmission scan, radiotracer solutions were administered via the previously installed tail vein catheters and a 2 hour emission image was acquired. Injected radiotracer solutions were injected into a total 8 mice (body weight: 22.2±2.0 gram) with tumor volumes 203.0±51.4 mm^3 for HT-29 and 422.9±128.4 mm^3 for L2987 were imaged 16-17 days post cell implantation. Each mouse received a single injection of SC dose of PD-L1 binding macrocyclic peptide 60 mg/kg (N=4) or saline (N=4) 30 minute before the [^18F]labelled macrocyclic PD-L1 peptide (124.0±8.4 μCi, tracer mass: 1.0±0.4 μg/kg) IV injection. Images were reconstructed using a maxiumum a posteriori (MAP) algorithm with attenuation correction using the collected transmission images and corrected for radioisotope decay. In the final images, regions of interest (ROIs) were drawn around the tumor boundary using ASIPro software (Siemens Preclinical Solutions). Time-activity curves were calculated for each ROI to yield a quantitative view of radiotracer within the tumor volume over the course of the 2 hour emission image. For final comparison, individual time-activity curves were normalized based on the injected radiotracer dose for each specific animal. Radiotracer uptake was compared across tumors using the final 10 minutes of each time-activity curve (90-100 minutes post-radiotracer injection).
Data set [3] concerns hPD-L1(+) L2987 human lung carcinoma xenografts. The description is as above. The class given is in vivo, mouse. The note with it: for SUV in L2987: individual mice.
Description: as §1
Data set [4] has as its system endogenous PD-L1. As to the kind of experiment: PET imaging in non-human primate, baseline and blocking study. The following applies: for % Change of tracer SUV, baseline vs blocked: 2 mg/kg PD-L1 binding macrocyclic peptide. As to the method:
Cynomolgus male monkeys with a previously installed vascular access port (VAP) were anesthetized with 0.02 mg/kg atropine, 5 mg/kg Telazol and 0.01 mg/kg buprenorphine I.M. (all drawn into a single syringe). An i.v. catheter is then placed in the cephalic vessel for fluid administration during the imaging procedure to maintain hydration. Animals were intubated with an endotracheal tube—usually 3.0 mm and transferred to the imaging bed of a microPET® F220TM PET instrument (Siemens Preclinical Solutions, Knoxville, Tenn.). Anesthesia was maintained with isoflurane and oxygen and I.V. fluids (LRS) were administered at a rate of 6 ml/kg/hr during the imaging procedure. As the axial field of view of the microPET® F220™ instrument is only 7.6 cm, images over 5 distinct bed positions were acquired to create a composite image of the animals from just above the heart through approximately the pelvis.
For each field of view, a 10 minute transmission image was first acquired using a ^57Co point source for the purpose of attenuation correction of the final PET images. Once transmission images were acquired for all bed positions, approximately 1.7 mCi (approximately 0.12 μg/kg) of the [^18F]labelled macrocyclic PD-L1 peptide radiotracer was administered via the installed VAP. 5 minute duration emission scans were then sequentially acquired for each bed position, beginning at position 1 centered approximately at the heart and moving toward the pelvis of the animal. Once images were acquired at each position (1 through 5), the imaging bed was moved back to bed position 1 and the process was repeated. Using this procedure, a total of 5 distinct images were acquired for each bed position over the duration of the imaging study.
Individual images were reconstructed using a filtered back projection (FBP) algorithm with attenuation correction using the collected transmission images and corrected for radioisotope decay. Final composite images were then produced by aligning images from all 5 bed positions obtained from a single pass (i.e. a single composite image was produced from each set of sequential images from bed positions 1 through 5) covering the duration of the imaging study. […] To determine the nature of the specific binding in the cynomolgus monkey spleen a blocking study was conducted in the following manner.
The cynomolgus monkey (4.4 kg, male) received a single IV injection of [^18F]labelled macrocyclic PD-L1 peptide radiotracer (˜1.7 mCi, mass: 0.21 μg/kg) at baseline. On the following day (post-dose), the same NHP received a single SC dose of 2 mg/kg anti-PD-L1 binding macrocyclic peptide at 2 hours before radiotracer injection (˜1.7 mCi, mass: 0.12 μg/kg).

The structures appear in SMILES notation. Several values for one entry are separate records, joined by “and”; a condition that tells them apart may be missing. Equal entries are not always repeated.

For `CCCC[C@H]1C(=O)N(C)[C@@H](CCCC)C(=O)N[C@@H](CC(C)C)C(=O)N[C@H](C(=O)NCC(=O)N[C@@H](Cc2cn(CCOCCOCCOCCOc3cccnc3[18F])nn2)C(=O)O)CSCC(=O)N[C@@H](Cc2ccc(O)cc2)C(=O)N(C)[C@@H](C)C(=O)N[C@@H](CC(N)=O)C(=O)N2CCC[C@H]2C(=O)N[C@@H](CN)C(=O)N[C@@H](CC(C)C)C(=O)N2C[C@H](O)C[C@H]2C(=O)N[C@@H](Cc2c[nH]c3ccccc23)C(=O)N[C@@H](CCN)C(=O)N[C@@H](Cc2cn(CC(=O)O)c3ccccc23)C(=O)N1C` [[^18F]labelled macrocyclic PD-L1 peptide], the SUV in data set [1] (1 ug/kg) stood at 0.037 SUV; in data set [1] (60 mg/kg), 0.071 SUV; in data set [2] (1 ug/kg, saline predose) it was 0.298 SUV; in data set [2] (60 mg/kg PD-L1 binding macrocyclic peptide predose), 0.05 SUV. For the same compound, the “radiotracer uptake in hPD-L1(+) L2987 xenografts relative to hPD-L1(−) HT-29 xenografts” value in data set [3] (SC 60 mg/kg PD-L1 binding macrocyclic peptide 30 minutes before radiotracer) turned out to be 0.7 ×; in data set [3] (animals receiving only the radiotracer) it was 8.1 ×. The “SUV in L2987” value in data set [3] (60 mg/kg PD-L1 binding macrocyclic peptide SC 30 min before tracer IV, 60 mg/kg) was 0.060 and 0.055 and 0.042 and 0.043; in data set [3] (saline (0 mg/kg PD-L1 binding macrocyclic peptide) SC 30 min before tracer IV, 90-100 minutes post-radiotracer injection), 0.231 and 0.452 and 0.297 and 0.213. Besides, the “tracer uptake blocked in the spleen” value in data set [4] (2 mg/kg of a specific PD-L1 binding macrocyclic peptide) is recorded as 93%. Besides, the “% Change of tracer SUV, baseline vs blocked” value in data set [4] (Duodenum) is recorded as −0.9%; in data set [4] (Gallbladder), −59.4%; in data set [4] (Kidney Cortex), 28.8%; in data set [4] (Kidney Pelvis), 171.7%; in data set [4] (Liver) it was −65.5%; in data set [4] (Lung), −57.3%. For the same compound, the “% Change of tracer SUV, baseline vs blocked” value in data set [4] (Muscle) was −34.7%; in data set [4] (Spleen), −92.8%; in data set [4] (Thymus), −53.3%. Moreover, the “notable radiotracer accumulation (organs)” value in data set [4] (PET images) was “kidneys, spleen, and bladder”. Further, the “background accumulation of radiotracer in background tissues such as muscle” value in data set [4] (visual inspection of PET images) is listed as “very low”.
